Measurements as given in PMC13004581, “Physical Mechanisms of an Unconventional Green Fluorescent Protein Indicator for Chloride” (The Journal of Physical Chemistry. B, 2026).

Each compound was assayed against T1, cgreGFP (Clytia gregaria, UniProt D7PM05) (assay: fluorescence titration (ex […] nm, em […] nm)). Conditions: read-out: K d (apparent).
T1 construct: gene GFP2; full-length, N-terminal polyhistidine tag kept (pET-28a(+)-TEV, NdeI/BamHI), codon-optimized gene, expressed in E. coli BL21(DE3)
T1 sequence (D7PM05 1-235): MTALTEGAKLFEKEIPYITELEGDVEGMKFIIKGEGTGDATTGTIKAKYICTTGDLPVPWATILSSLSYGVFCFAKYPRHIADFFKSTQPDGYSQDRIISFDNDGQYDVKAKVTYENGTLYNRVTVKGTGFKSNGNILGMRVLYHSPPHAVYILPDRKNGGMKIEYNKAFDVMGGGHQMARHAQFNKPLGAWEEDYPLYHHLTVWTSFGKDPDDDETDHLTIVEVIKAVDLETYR
Assay type: binding

Row | SMILES | Kd [mM]
1 | Cl [chloride] | 25.2 ± 2
2 | O=[N+]([O-])O [nitrate] | 10.7 ± 1.2
3 | Br [bromide] | 15.1 ± 1.2
4 | I [iodide] | 5.3
